Assay results taken from ChEMBL document CHEMBL5715954, “Silencing c-Myc translation as a therapeutic strategy through targeting PI3Kδ and CK1ε in hematological malignancies” (Blood, 2017).

Assays:
Design in all cases: scale not given: the % may be the effect or the level left
[1] = biological target: Proto-oncogene tyrosine-protein kinase ROS (Homo sapiens) (UniProt P08922); assay: Inhibition of human ROS assessed as enzyme activity at 1 uM using KKKSPGEYVNIEFG as substrate preincubated for 20 mins followed by [gamma-33P]-ATP addition and measured after 120 mins by radiometric Hot-SpotSM Kinase assay relative to control
Sequence of Proto-oncogene tyrosine-protein kinase ROS (Homo sapiens) (P08922 whole entry): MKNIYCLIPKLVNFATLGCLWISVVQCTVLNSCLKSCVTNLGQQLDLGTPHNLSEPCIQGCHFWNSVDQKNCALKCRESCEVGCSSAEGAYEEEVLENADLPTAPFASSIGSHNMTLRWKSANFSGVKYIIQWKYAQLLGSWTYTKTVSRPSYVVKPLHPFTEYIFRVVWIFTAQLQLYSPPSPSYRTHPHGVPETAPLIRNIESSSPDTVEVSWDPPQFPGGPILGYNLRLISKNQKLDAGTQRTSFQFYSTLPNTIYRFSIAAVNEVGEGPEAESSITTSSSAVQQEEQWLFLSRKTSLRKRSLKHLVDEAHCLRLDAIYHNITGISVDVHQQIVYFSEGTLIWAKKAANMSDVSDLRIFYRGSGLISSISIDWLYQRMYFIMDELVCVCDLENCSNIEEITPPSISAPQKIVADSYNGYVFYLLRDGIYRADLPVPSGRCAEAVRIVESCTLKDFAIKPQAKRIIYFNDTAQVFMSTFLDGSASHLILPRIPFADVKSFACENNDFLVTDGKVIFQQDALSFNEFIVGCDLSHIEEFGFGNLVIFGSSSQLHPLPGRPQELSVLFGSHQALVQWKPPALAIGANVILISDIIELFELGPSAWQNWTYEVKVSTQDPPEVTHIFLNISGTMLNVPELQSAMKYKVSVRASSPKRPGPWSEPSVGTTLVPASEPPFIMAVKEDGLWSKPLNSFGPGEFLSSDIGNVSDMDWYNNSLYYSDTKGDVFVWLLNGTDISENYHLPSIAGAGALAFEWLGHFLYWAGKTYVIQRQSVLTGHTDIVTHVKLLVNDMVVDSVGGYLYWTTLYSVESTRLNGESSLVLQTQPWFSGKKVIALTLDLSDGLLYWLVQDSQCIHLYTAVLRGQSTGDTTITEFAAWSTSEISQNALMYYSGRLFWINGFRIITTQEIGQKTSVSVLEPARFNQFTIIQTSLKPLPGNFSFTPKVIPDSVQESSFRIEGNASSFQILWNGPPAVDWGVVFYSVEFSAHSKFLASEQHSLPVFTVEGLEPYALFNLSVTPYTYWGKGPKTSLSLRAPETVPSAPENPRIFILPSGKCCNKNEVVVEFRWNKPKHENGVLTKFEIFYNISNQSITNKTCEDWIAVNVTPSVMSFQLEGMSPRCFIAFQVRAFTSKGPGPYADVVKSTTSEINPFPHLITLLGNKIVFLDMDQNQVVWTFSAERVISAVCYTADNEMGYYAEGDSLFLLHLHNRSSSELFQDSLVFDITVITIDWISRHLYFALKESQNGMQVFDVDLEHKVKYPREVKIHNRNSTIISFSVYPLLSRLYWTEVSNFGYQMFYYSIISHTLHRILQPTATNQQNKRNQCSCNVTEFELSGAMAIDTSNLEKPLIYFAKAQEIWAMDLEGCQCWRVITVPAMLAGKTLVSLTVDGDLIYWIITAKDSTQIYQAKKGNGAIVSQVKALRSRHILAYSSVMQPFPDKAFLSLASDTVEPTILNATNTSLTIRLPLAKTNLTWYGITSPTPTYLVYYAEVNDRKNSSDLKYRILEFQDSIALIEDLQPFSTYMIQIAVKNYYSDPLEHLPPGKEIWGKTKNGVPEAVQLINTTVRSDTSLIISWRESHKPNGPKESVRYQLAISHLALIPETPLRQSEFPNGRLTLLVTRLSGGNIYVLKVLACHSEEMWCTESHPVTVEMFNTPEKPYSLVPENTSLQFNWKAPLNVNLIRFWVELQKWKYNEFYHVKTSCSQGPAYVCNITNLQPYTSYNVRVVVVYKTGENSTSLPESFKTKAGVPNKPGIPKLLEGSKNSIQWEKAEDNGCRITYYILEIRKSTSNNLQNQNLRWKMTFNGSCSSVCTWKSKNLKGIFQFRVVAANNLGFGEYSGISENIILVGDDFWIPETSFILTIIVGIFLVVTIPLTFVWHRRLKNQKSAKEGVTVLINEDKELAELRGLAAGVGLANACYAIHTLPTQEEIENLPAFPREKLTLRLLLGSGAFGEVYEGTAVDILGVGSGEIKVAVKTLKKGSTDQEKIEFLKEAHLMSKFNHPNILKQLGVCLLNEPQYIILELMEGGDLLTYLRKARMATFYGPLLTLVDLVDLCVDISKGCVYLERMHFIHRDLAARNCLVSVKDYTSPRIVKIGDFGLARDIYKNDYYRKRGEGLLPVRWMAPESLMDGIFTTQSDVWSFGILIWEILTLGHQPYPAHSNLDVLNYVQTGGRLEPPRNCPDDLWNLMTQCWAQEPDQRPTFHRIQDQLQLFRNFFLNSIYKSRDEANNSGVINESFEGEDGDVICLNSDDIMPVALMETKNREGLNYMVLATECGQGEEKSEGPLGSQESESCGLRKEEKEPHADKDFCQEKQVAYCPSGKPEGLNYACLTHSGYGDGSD

[2] = biological target: Homeodomain-interacting protein kinase 3 (Homo sapiens) (UniProt Q9H422); assay: Inhibition of human HIPK3 assessed as enzyme activity at 1 uM using myelin basic protein as substrate preincubated for 20 mins followed by [gamma-33P]-ATP addition and measured after 120 mins by radiometric Hot-SpotSM Kinase assay relative to control
[3] = biological target: Ephrin type-A receptor 5 (Homo sapiens) (UniProt P54756); assay: Inhibition of human EPHA5 assessed as enzyme activity at 1 uM using poly[Glu:Tyr] (4:1) as substrate preincubated for 20 mins followed by [gamma-33P]-ATP addition and measured after 120 mins by radiometric Hot-SpotSM Kinase assay relative to control
Sequence of Ephrin type-A receptor 5 (Homo sapiens) (P54756 whole entry): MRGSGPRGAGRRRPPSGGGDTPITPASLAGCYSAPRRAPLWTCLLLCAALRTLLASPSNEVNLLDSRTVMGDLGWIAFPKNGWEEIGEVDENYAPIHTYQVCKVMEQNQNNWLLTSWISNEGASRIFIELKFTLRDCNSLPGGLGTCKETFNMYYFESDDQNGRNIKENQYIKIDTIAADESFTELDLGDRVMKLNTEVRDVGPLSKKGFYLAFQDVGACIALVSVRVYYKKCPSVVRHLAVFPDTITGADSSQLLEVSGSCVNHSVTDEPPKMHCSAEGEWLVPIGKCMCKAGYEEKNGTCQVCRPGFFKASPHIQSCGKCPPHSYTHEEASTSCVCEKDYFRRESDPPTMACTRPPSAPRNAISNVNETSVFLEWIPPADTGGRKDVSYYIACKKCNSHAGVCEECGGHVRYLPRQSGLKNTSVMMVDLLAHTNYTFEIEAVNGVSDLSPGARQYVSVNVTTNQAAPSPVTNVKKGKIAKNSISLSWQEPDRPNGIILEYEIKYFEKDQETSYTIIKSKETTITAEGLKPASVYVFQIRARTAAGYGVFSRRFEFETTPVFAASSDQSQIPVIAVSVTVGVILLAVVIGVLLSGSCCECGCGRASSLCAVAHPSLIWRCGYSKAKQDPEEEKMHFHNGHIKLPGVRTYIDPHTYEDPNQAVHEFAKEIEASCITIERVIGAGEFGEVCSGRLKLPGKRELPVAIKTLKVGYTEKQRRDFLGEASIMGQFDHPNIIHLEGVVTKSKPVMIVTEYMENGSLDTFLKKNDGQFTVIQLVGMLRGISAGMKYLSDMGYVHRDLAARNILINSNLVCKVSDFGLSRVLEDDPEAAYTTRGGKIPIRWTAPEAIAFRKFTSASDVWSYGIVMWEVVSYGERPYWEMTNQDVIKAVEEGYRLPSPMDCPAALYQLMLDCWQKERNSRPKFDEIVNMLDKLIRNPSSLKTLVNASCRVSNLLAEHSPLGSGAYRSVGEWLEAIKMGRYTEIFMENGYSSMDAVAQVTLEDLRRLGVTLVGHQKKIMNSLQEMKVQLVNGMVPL

[4] = biological target: T1, Serine/threonine-protein kinase Sgk2 (Homo sapiens) (UniProt Q9HBY8); assay: Inhibition of human SGK2 assessed as enzyme activity at 1 uM using KGSGSGRPRTSSFAEG as substrate preincubated for 20 mins followed by [gamma-33P]-ATP addition and measured after 120 mins by radiometric Hot-SpotSM Kinase assay relative to control
T1 sequence (whole entry): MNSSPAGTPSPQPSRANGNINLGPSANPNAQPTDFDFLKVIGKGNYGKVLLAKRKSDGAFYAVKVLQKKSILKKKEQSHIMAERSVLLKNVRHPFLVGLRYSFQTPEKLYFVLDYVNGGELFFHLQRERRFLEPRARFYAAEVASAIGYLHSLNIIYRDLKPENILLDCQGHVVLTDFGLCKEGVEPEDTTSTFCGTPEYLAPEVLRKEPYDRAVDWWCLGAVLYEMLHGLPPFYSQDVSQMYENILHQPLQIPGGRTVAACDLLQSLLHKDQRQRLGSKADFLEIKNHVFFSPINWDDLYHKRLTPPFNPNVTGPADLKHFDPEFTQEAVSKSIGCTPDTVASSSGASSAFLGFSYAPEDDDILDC

[5] = biological target: CDK4/Cyclin D3 (Homo sapiens) (UniProt P11802+P30281); assay: Inhibition of human CDK4/cyclin D3 assessed as enzyme activity at 1 uM using RB-CTF as substrate preincubated for 20 mins followed by [gamma-33P]-ATP addition and measured after 120 mins by radiometric Hot-SpotSM Kinase assay relative to control; format: protein-complex assay
[6] = biological target: BDNF/NT-3 growth factors receptor (Homo sapiens) (UniProt Q16620); assay: Inhibition of human TRKB assessed as enzyme activity at 1 uM using poly[Glu:Tyr] (4:1) as substrate preincubated for 20 mins followed by [gamma-33P]-ATP addition and measured after 120 mins by radiometric Hot-SpotSM Kinase assay relative to control
[7] = biological target: Protein kinase C alpha type (Homo sapiens) (UniProt P17252); assay: Inhibition of human PKCa assessed as enzyme activity at 1 uM using ERMRPRKRQGSVRRRV as substrate preincubated for 20 mins followed by [gamma-33P]-ATP addition and measured after 120 mins by radiometric Hot-SpotSM Kinase assay relative to control
[8] = biological target: Mitogen-activated protein kinase kinase kinase kinase 5 (Homo sapiens) (UniProt Q9Y4K4); assay: Inhibition of human KHS assessed as enzyme activity at 1 uM using myelin basic protein as substrate preincubated for 20 mins followed by [gamma-33P]-ATP addition and measured after 120 mins by radiometric Hot-SpotSM Kinase assay relative to control
Sequence of Mitogen-activated protein kinase kinase kinase kinase 5 (Homo sapiens) (Q9Y4K4 whole entry, looked up): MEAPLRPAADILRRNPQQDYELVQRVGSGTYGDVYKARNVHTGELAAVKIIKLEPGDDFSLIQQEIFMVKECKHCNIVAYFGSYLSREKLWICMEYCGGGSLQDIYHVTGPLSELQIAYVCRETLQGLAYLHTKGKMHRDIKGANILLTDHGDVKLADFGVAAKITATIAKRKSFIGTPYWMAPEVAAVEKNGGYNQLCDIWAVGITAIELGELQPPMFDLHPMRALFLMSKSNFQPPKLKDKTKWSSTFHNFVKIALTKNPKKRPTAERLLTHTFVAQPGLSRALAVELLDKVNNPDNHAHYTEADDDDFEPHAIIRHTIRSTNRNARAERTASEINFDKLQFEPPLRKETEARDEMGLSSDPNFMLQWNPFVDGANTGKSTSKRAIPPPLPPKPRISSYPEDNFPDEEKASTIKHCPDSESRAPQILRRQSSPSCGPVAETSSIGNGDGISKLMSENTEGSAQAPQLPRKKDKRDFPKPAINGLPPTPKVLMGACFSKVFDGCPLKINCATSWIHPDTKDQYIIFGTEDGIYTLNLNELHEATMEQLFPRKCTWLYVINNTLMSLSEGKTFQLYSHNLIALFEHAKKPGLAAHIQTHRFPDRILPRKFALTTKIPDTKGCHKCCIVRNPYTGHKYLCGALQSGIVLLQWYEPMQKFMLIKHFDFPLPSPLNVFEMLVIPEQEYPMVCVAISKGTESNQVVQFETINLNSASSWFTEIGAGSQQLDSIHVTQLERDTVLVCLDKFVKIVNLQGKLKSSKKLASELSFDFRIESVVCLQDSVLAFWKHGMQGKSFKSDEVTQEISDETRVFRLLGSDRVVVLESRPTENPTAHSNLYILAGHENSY

[9] = biological target: Serine/threonine-protein kinase pim-3 (Homo sapiens) (UniProt Q86V86); assay: Inhibition of human PIM3 assessed as enzyme activity at 1 uM using RSRHSSYPAGT as substrate preincubated for 20 mins followed by [gamma-33P]-ATP addition and measured after 120 mins by radiometric Hot-SpotSM Kinase assay relative to control
[10] = biological target: Ribosomal protein S6 kinase alpha-1 (Homo sapiens) (UniProt Q15418); assay: Inhibition of human RSK1 assessed as enzyme activity at 1 uM using KKLNRTLSVA as substrate preincubated for 20 mins followed by [gamma-33P]-ATP addition and measured after 120 mins by radiometric Hot-SpotSM Kinase assay relative to control
[11] = biological target: Mitogen-activated protein kinase kinase kinase 8 (Homo sapiens) (UniProt P41279); assay: Inhibition of human COT1 assessed as enzyme activity at 1 uM using MEK1 (K97R) as substrate preincubated for 20 mins followed by [gamma-33P]-ATP addition and measured after 120 mins by radiometric Hot-SpotSM Kinase assay relative to control
[12] = biological target: CDK17/Cyclin-Y (Homo sapiens) (UniProt Q00537+Q8ND76); assay: Inhibition of human CDK17/cyclin Y assessed as enzyme activity at 1 uM using myelin basic protein as substrate preincubated for 20 mins followed by [gamma-33P]-ATP addition and measured after 120 mins by radiometric Hot-SpotSM Kinase assay relative to control; format: protein-complex assay
Homo sapiens = species on record: Homo sapiens; assay: Inhibition of human CDK2/cyclin A assessed as enzyme activity at 1 uM using RB Protein as substrate preincubated for 20 mins followed by [gamma-33P]-ATP addition and measured after 120 mins by radiometric Hot-SpotSM Kinase assay relative to control
[13] = biological target: Dual specificity tyrosine-phosphorylation-regulated kinase 1A (Homo sapiens) (UniProt Q13627); assay: Inhibition of human DYRK1/DYRK1A assessed as enzyme activity at 1 uM using RRRFRPASPLRGPPK as substrate preincubated for 20 mins followed by [gamma-33P]-ATP addition and measured after 120 mins by radiometric Hot-SpotSM Kinase assay relative to control
[14] = biological target: Activated CDC42 kinase 1 (Homo sapiens) (UniProt Q07912); assay: Inhibition of human ACK1 assessed as enzyme activity at 1 uM using EAIYAAPFAKKK as substrate preincubated for 20 mins followed by [gamma-33P]-ATP addition and measured after 120 mins by radiometric Hot-SpotSM Kinase assay relative to control
[15] = biological target: Mitogen-activated protein kinase kinase kinase 10 (Homo sapiens) (UniProt Q02779); assay: Inhibition of human MLK2 assessed as enzyme activity at 1 uM using myelin basic protein as substrate preincubated for 20 mins followed by [gamma-33P]-ATP addition and measured after 120 mins by radiometric Hot-SpotSM Kinase assay relative to control
[16] = biological target: Bone morphogenetic protein receptor type-1A (Homo sapiens) (UniProt P36894); assay: Inhibition of human ALK3 assessed as enzyme activity at 1 uM using casein as substrate preincubated for 20 mins followed by [gamma-33P]-ATP addition and measured after 120 mins by radiometric Hot-SpotSM Kinase assay relative to control

| Structure (SMILES) | Activity [1] [%] | Activity [2] [%] | Activity [3] [%] | Activity [4] [%] | Activity [5] [%] | Activity [6] [%] | Activity [7] [%] | Activity [8] [%] | Activity [9] [%] | Activity [10] [%] | Activity [11] [%] | Activity [12] [%] | Activity (Homo sapiens) [%] | Activity [13] [%] | Activity [14] [%] | Activity [15] [%] | Activity [16] [%] |
| --- | --- | --- | --- | --- | --- | --- | --- | --- | --- | --- | --- | --- | --- | --- | --- | --- | --- |
| C[C@H](Nc1ncnc2nc[nH]c12)c1cc2cccc(Cl)c2c(=O)n1-c1ccccc1 | 86.7 | 105 | 104 | 98.8 | 97.5 | 95.8 | 116 | 101 | 95.4 | 100 | 96.8 | 97.2 | 101 | 89 | 95.5 | 103 | 101 |
| CC[C@H](Nc1ncnc2[nH]cnc12)c1nc2cccc(F)c2c(=O)n1-c1ccccc1 | 98 | 108 | 105 | 91.9 | 99.3 | 94.1 | 103 | 95.9 | 104 | 101 | 101 | 96.5 | 100 | 87.8 | 90.7 | 112 | 105 |
| CC(C)Oc1ccc(-c2nn([C@@H](C)c3oc4ccc(F)cc4c(=O)c3-c3cccc(F)c3)c3ncnc(N)c23)cc1F [UMBRALISIB] | 94.5 | 103 | 103 | 90.9 | 98.8 | 96 | 114 | 99.5 | 102 | 104 | 98.2 | 100 | 104 | 87 | 93.6 | 108 | 89.5 |
